According to patent publication US11649246B2, “Salts of 4-amino-N-(l-((3-chloro-2-fluorophenyl)amino)-6-methylisoquinolin-5-yl)thieno[3,2-D]pyrimidine-7-carboxamide, and crystalline forms thereof” (Hanmi Pharm. Co., Ltd., priority 2017, dated 2023):
Counter-ions that a name gives are not always drawn.

How the values were obtained:
Assay type in all cases: physicochemical
[1] = Hygroscopicity / water content at 25° C. and 75% RH; details: for water content after hygroscopicity test: 25° C. and 75% RH; for Water Content (%): salt as prepared, before humidity exposure
Procedure: Various salt forms of Formula (I) were prepared from Formula (I) free base and characterized by water solubility, PXRD, DSC, DVS and hygroscopicity.

[2] = Salt screening: solubility by HPLC according to KP, USP and EP general chapters; details: water, Example 1B salts
Procedure: For each Example 1B salt, a mixture of 40 mL (20 v/w) of a suitable solvent and 2 g Formula (I) free base was formed with agitation at room temperature. The indicated acid (2.2 eq.) was added to the mixture and salt formation was monitored by visual check. The resulting solid bis-acid salt was stirred for 24 hr at room temperature then filtered, and washed with a suitable solvent.
The water content, solubility in water (mg/mL), appearance, salt yield (%) and PXRD results for each of the salts of Example 1B are summarized in Table 4 where “MsOH” refers to methane sulfonic acid; “BsOH” refers to benzenesulfonic acid; “OW” refers to off-white; “W” refers to white; “Cryst” refers to crystalline; and “Amorph” refers to amorphous. Solubility was measured by HPLC according to KP, USP and EP general chapters.

[3] = Stress stability test at 60° C.; details: for physicochemical stability (summary in words): up to 4 weeks
Procedure: In order to compare physicochemical stability among the crystalline form prepared in Example 3 (crystalline Formula (I) bis-hydrochloride Form I) and 16 (Formula (I) crystalline free base), and the amorphous form prepared in Comparative Example 1, a stress stability test was conducted by storing samples at 60° C., for different periods of time up to 4 weeks.

[4] = Water content of Form VI after humidity exposure (conversion to Form I)
Procedure: Crystalline Form VI was converted to Form I by two methods. In a first method, Form VI was exposed to a relative humidity of 60% at 25° C. In a second method, Form VI was exposed to a relative humidity of 20% at 21° C.

[5] = Dissociation constant (pKa), GLpKa method, Sirius T3; details: as an aqueous solution, calculated by extrapolation
Procedure: Based on these pKa values, Formula (I) is believed to be weakly basic compound.
The dissociation, pKa, was measured with a T3 (Sirius Analytical Instrument Ltd., UK). About 1 mg of Formula (I) bis-hydrochloride was transferred to a GLpKa beaker, dissolved with 43% to 53% MDM solution (ISA Water/MeOH/ACN/p-Dioxane=40/20/20/20, Sirius), adjusted to pH 1.8 with 0.5 N HCl, and titrated up to pH 12.2 with 0.5 N KOH. The pKa as an aqueous solution was calculated by extrapolation.

[6] = Solubility of bis-hydrochloride Form I by HPLC test and observation test
Procedure: Solubility was measured by HPLC according to KP, USP and EP general chapters. […] The results of solubility were same between HPLC test and observation test.

[7] = Hygroscopicity by dynamic vapor sorption (DVS); details: 25°, Form I
Procedure: Dynamic vapor sorption (DVS) analysis was performed in a DVS advantage (Surface measurement system, United Kingdom) analyzer at 25° C. with a relative humidity of 0% to 90%. A sample in an amount of 10 mg was placed into a wire-mesh vapor sorption balance pan and then attached to a DVS advantage dynamic vapor sorption balance via surface measurement systems. […] Upon completion of the sorption cycle, the sample was dried using the same process while maintaining a relative humidity of 0%. The changes in the sample weight during the adsorption/desorption cycle (repeated 3 times) were recorded and the hygroscopicity of the sample was measured. DVS isotherm diagrams are presented in FIGS. 1, 3, 6, 10, 13, 16 and 19 where Target PP (%) refers to relative humidity, “SORP” refers to adsorption and “DESORP” refers to desorption.
Hygroscopicity was measured by DVS where the DVS curve for Formula (I) bis-hydrochloride was recorded in a DVS Advantage I analyzer (SMS, United Kingdom). The DVS was operated over 3 cycles for measurement of the surface adsorption effects of water, from 0% RH to 90% RH at 25°.

pH of aqueous solution = details: room temperature, Form I
Procedure: Aqueous solution pH was measured by preparing 0.01%, 0.1% and 1% aqueous solutions of Formula (I) bis-hydrochloride and then shaking the solution for 30 minutes at room temperature followed by filtration. The pH of the filtered aqueous solution was measured with a S2K713 Pocket pH meter (ISFETCOM, Japan) according to the method of the Korean Pharmacopoeia.

[8] = Partition / distribution coefficient octanol-water (Sirius T3); details: for distributed ratio in octanol phase to water phase: ratio to 1
Procedure: The partition coefficient, Log P, was measured with a T3 (Sirius Analytical Instrument Ltd., UK). About 1 mg of Formula (I) bis-hydrochloride was added to a 15 mL GLpKa beaker, dissolved with octanol/150 mM KCl, adjusted to pH 1.8 with 0.5 N HCl, and titrated up to pH 12.2 with 0.5 N KOH. The partition coefficient of the octanol-water system was determined by correcting the difference between titration curves of the blank from the titration curve, by inserting the value of the dissociation constant measured previously.

[9] = Water solubility of Formula (I) free base
Procedure: Formula (I) free base is poorly soluble in water with a solubility of less than 0.4 μg/mL. Salt forms of free base compounds may result in improved water solubility.

Structure (SMILES): Cc1ccc2c(Nc3cccc(Cl)c3F)nccc2c1NC(=O)c1csc2c(N)ncnc12 [Formula (I) bis-hydrogensulfate salt, 4-amino-N-(1-((3-chloro-2-fluorophenyl)amino)-6-methylisoquinolin-5-yl)thieno[3,2-d]pyrimidine-7-carboxamide]
- water content after hygroscopicity test [1]: 17.1%
- Water Content (%) [1]: 2.6%
- Water Content (%) ([1]; listed as H2SO4): 2.6%
- H2O Solubility ([2]; listed as H2SO4): 160 µg/mL

Structure (SMILES): Cc1ccc2c(Nc3cccc(Cl)c3F)nccc2c1NC(=O)c1csc2c(N)ncnc12 [MsOH, 4-amino-N-(1-((3-chloro-2-fluorophenyl)amino)-6-methylisoquinolin-5-yl)thieno[3,2-d]pyrimidine-7-carboxamide]
- Water Content (%) [1]: 2.1%
- H2O Solubility [2]: 50 µg/mL

Structure (SMILES): Cc1ccc2c(Nc3cccc(Cl)c3F)nccc2c1NC(=O)c1csc2c(N)ncnc12 [BsOH, 4-amino-N-(1-((3-chloro-2-fluorophenyl)amino)-6-methylisoquinolin-5-yl)thieno[3,2-d]pyrimidine-7-carboxamide]
- Water Content (%) [1]: 0.9%
- H2O Solubility [2]: 30 µg/mL

Structure (SMILES): Cc1ccc2c(Nc3cccc(Cl)c3F)nccc2c1NC(=O)c1csc2c(N)ncnc12 [HBr, 4-amino-N-(1-((3-chloro-2-fluorophenyl)amino)-6-methylisoquinolin-5-yl)thieno[3,2-d]pyrimidine-7-carboxamide]
- Water Content (%) [1]: 2.9%
- H2O Solubility [2]: 50 µg/mL

Structure (SMILES): Cc1ccc2c(Nc3cccc(Cl)c3F)nccc2c1NC(=O)c1csc2c(N)ncnc12 [Comparative Example 1, 4-amino-N-(1-((3-chloro-2-fluorophenyl)amino)-6-methylisoquinolin-5-yl)thieno[3,2-d]pyrimidine-7-carboxamide]
- Purity(%) (A % by HPLC) ([3]; 2 weeks): 99.5%
- Total impurities(%) (A % by HPLC) ([3]; 2 weeks): 0.485%
- Purity(%) (A % by HPLC) ([3]; 4 weeks): 99.3%
- Total impurities(%) (A % by HPLC) ([3]; 4 weeks): 0.68%
- Purity(%) (A % by HPLC) ([3]; 1 day): 99.7%
- Total impurities(%) (A % by HPLC) ([3]; 1 day): 0.30%
- Purity(%) (A % by HPLC) ([3]; 3 days): 99.7%
- Total impurities(%) (A % by HPLC) ([3]; 3 days): 0.31%
- Purity(%) (A % by HPLC) ([3]; 7 days): 99.6%
- Total impurities(%) (A % by HPLC) ([3]; 7 days): 0.38%
- Purity(%) (A % by HPLC) ([3]; Initial): 99.7%
- Total impurities(%) (A % by HPLC) ([3]; Initial): 0.32%
- physicochemical stability (summary in words) ([3]; listed as amorphous form): change of purity after 7 days

Structure (SMILES): Cc1ccc2c(Nc3cccc(Cl)c3F)nccc2c1NC(=O)c1csc2c(N)ncnc12 [Form VI, 4-amino-N-(1-((3-chloro-2-fluorophenyl)amino)-6-methylisoquinolin-5-yl)thieno[3,2-d]pyrimidine-7-carboxamide]
- water content ([4]; after exposure at 21° C. and 20% RH for 3 hours): 8.0%
- water content ([4]; after exposure at 21° C. and 20% RH for 6 hours): 10.4%
- water content ([4]; after exposure at 21° C. and 20% RH for 5 days): 10.1%
- water content ([4]; after exposure at 25° C. and 60% RH): 11.3%

Structure (SMILES): Cc1ccc2c(Nc3cccc(Cl)c3F)nccc2c1NC(=O)c1csc2c(N)ncnc12 [Formula (I) bis-hydrochloride salt, 4-amino-N-(1-((3-chloro-2-fluorophenyl)amino)-6-methylisoquinolin-5-yl)thieno[3,2-d]pyrimidine-7-carboxamide]
- pKa1 [5]: 3.86
- pKa2 [5]: 4.73
- pKa3 [5]: 10.30
- pKa3 ([5]; listed as Formula (I) bis-hydrochloride): 10.30
- water content after hygroscopicity test [1]: 11.7%
- Water Content (%) [1]: 6.2%
- Water Content (%) ([1]; listed as HCl): 6.2%
- H2O Solubility ([2]; listed as HCl): 120 µg/mL
- Solubility Observation ([6]; ACN): practically in soluble
- Solubility Observation ([6]; DMSO): freely soluble
- Solubility Observation ([6]; Dichloromethane): practically in soluble
- Solubility Observation ([6]; Ethanol): very slightly soluble
- Solubility Observation ([6]; Ethyl acetate): practically in soluble
- Solubility Observation ([6]; Ethyl ether): practically in soluble
- Solubility Observation ([6]; Methanol): sparingly soluble
- Solubility Observation ([6]; Water): practically insoluble
- Solubility Observation ([6]; buffer over pH 3.0): practically insoluble
- Solubility Observation ([6]; n-Hexane): practically in soluble
- Solubility Observation ([6]; pH 1.2 buffer): very slightly soluble
- Solubility Observation ([6]; pH 2.0 buffer): very slightly soluble
- water absorption (DVS) ([7]; from 0% RH to 20% RH): about 9.4%
- water absorption (DVS) ([7]; from 0% RH to 90% RH): about 14.1%
- water desorption (DVS) ([7]; from 10% RH to ~0% RH): about 8.9%
- water absorption (DVS), increased to ([7]; from 20% RH to 90% RH): 14.1%
- water desorption (DVS) ([7]; from 90% RH to 10% RH): about 5.2%
- pH of aqueous solution (pH of aqueous solution; 0.1 mg/mL (0.01%) solution): 3.9
- pH of aqueous solution (pH of aqueous solution; 1 mg/mL (0.1%) solution): 2.6
- pH of aqueous solution (pH of aqueous solution; 10 mg/mL (1%) solution): 1.8
- distributed ratio in octanol phase to water phase ([8]; neutral state at pH 11 or higher): about 20,000
- logP ([8]; octanol/water (octanol/150 mM KCl), neutral state at pH 11 or higher): 4.33
- logD ([8]; octanol/water, pH 7.4): 5.24
- distributed ratio in octanol phase to water phase ([8]; pH 7.4): about 200,000

Structure (SMILES): Cc1ccc2c(Nc3cccc(Cl)c3F)nccc2c1NC(=O)c1csc2c(N)ncnc12 [Example 16, 4-amino-N-(1-((3-chloro-2-fluorophenyl)amino)-6-methylisoquinolin-5-yl)thieno[3,2-d]pyrimidine-7-carboxamide]
- Purity(%) (A % by HPLC) ([3]; 2 weeks): 99.7%
- Total impurities(%) (A % by HPLC) ([3]; 2 weeks): 0.29%
- Purity(%) (A % by HPLC) ([3]; 7 days): 99.7%
- Total impurities(%) (A % by HPLC) ([3]; 7 days): 0.29%
- Purity(%) (A % by HPLC) ([3]; Initial): 99.7%
- Total impurities(%) (A % by HPLC) ([3]; Initial): 0.29%
- physicochemical stability (summary in words) ([3]; listed as crystalline form of the free base): remarkably superior stability over the amorphous form

Structure (SMILES): Cc1ccc2c(Nc3cccc(Cl)c3F)nccc2c1NC(=O)c1csc2c(N)ncnc12 [Formula (I) free base, 4-amino-N-(1-((3-chloro-2-fluorophenyl)amino)-6-methylisoquinolin-5-yl)thieno[3,2-d]pyrimidine-7-carboxamide]
- solubility [9]: < 0.4 µg/mL
